Drawing on paper PMC12838644, “Dihydrotanshinone as a Natural Product-Based CYP17A1 Lyase Inhibitor for Hyperandrogenic Disorders” (Biomolecules, 2026), this text covers IC50 for one compound.

For this test, the system named is NCI-H295R, HEK-293T and RWPE-1 cells. The test is described as follows: alamarBlue cytotoxicity assay, across all three cell lines. The format is cell-based. The following applies: Homo sapiens, read-out: half-maximal inhibitory concentrations (IC50), range across all three cell lines. How it is done:
Human adrenocortical NCI-H295R cells (ATCC: CRL-2128) were purchased from ATCC and cultured in DMEM/Ham’s F-12 medium with L-glutamine and 15 mM HEPES (Thermo Fisher Scientific, Waltham, MA, USA), supplemented with 5% NU-Serum (Becton Dickinson, Franklin Lakes, NJ, USA), 0.1% insulin, transferrin, selenium (100 U/mL; Thermo Fisher Scientific, Waltham, MA, USA), and 1% penicillin (100 U/mL; Thermo Fisher Scientific, Waltham, MA, USA), and streptomycin (100 μg/mL; GIBCO, New York, NY, USA). RWPE-1 cells (ATCC: CRL-36O7) were cultured in keratinocyte serum-free media (K-SFM) supplemented with 0.05 mg/mL bovine pituitary extract and 5 ng/mL epidermal growth factor, and 1% penicillin (100 U/mL; Thermo Fisher Scientific, Waltham, MA, USA), and streptomycin (100 μg/mL; GIBCO). […] Additionally, key functional and morphological characteristics were assessed to verify their alignment with previously reported profiles.
The alamarBlue® assay (Thermo Fisher Scientific, Waltham, MA USA) was conducted as previously described. […] Cell viability was measured using the alamarBlue® assay. […] The plates were incubated in the dark at 37 °C with 5% CO2 for 4 h, and fluorescence was measured at an excitation wavelength of 540 nm and an emission wavelength of 590 nm. Cell viability was calculated relative to the control sample treated with DMSO. […]
In general terms: Resazurin is reduced to fluorescent resorufin, in cell work by metabolically active cells.

As for `Cc1cccc2c3c(ccc12)C1=C(C(=O)C3=O)[C@@H](C)CO1` [DT, dihydrotanshinone I], the IC50 is 950 to 1400 nM.
